From patent US10738080B2, “Inhibitors of beta integrin-G protein alpha subunit binding interactions” (priority 2010, dated 2020)

Experiments:
[1] = tested on: mouse platelets; assay: Mouse platelet spreading on immobilized fibrinogen; assay type: cell-based
[2] = tested on: RhoA; details: mouse platelets from siRNA-transfected stem cells
Method: (FIG. 6B) Scrambled siRNA, Gα13 siRNA #1- and Gα13 siRNA #2-transfected platelets were allowed to adhere to immobilized fibrinogen for the indicated time, and analyzed for c-Src activation and RhoA activity.
(§1) Platelets in modified Tyrode's buffer or adherent on immobilized fibrinogen were lysed quickly in 0.8 ml lysis buffer (50 mM Tris, pH 7.4, 10 mM MgCl2, 500 mM NaCl, 1% Triton X-100, 0.1% SDS, 0.5% deoxycholate, 10 μg/ml each of aprotinin and leupeptin, 1 mM phenylmethylsulfonyl fluoride, and 200 μM sodium vanadate). Lysates were cleared by centrifugation at 18,000 g for 2 minutes at 4° C., and the supernatant was incubated for 1 hour with 30 μg purified GST-Rhotekin RhoA-binding domain fusion protein (GST-RBD) bound to glutathione-Sepharose beads (S10). Samples were washed three times using washing buffer (50 mM Tris, pH 7.4, 10 mM MgCl2, 150 mM NaCl, 1% Triton X-100) and then immunoblotted with an anti-RhoA monoclonal antibody. Cell lysates were also immunoblotted with anti-RhoA as loading control.

[3] = tested on: c-Src
Method: Two different Gα13 siRNA target sequences were used: siRNA #1, 5′-[…] (SEQ ID NO: 56); siRNAi #2, 5′-[…] (SEQ ID NO: 57). Scrambled siRNA sequence is: 5′-[…]-3′ (SEQ ID NO: 58). These sequences are conserved in hamsters and mice. Lentivirus was prepared by co-transfection of pLL3.7-scrambled siRNA or pLL3.7-Gα13 siRNA (#1 and #2) with pLP1, pLP2 and pLP/VSVG plasmids (Invitrogen) into ˜90% confluent 293FT cells using Lipofectamine 2000. 48 hours after transfection, cell culture medium containing virus was filtered, titered and stored at −80° C. Bone manow cells from 6-8 week old healthy C57/BL mice were isolated aseptically from femurs and tibias. Stem cells were negatively selected by MACS Lineage cell depletion kit (Miltenyi Biotec) and cultured in RPMI 1640 complete medium with 10 ng/ml interleukin-3, 10 ng/ml interleukin-6, 10 ng/ml granulocyte-macrophage colony stimulating factor (GM-CSF), and 100 ng/ml stem cell factor (SCF). 50 multiplicity of infection (MOI) lenti-virus was used to infect mice bone marrow stem cells twice with 6 μg/ml polybrene. 48 hours after infection, 5×10^6 stem cells resuspended in PBS were transplanted by retrobulbar injection into lethally irradiated (10.5 Gy) C57/BL mice one day after irradiation (S11). The siRNA-resistant mutants of Gα13 were generated by PCR.

[4] = tested on: human platelets
Method: Platelet aggregation assays were carried out as follows: Platelet aggregation and secretion was measured in a turbidometric platelet aggregometer (Chronolog) at 37° C. with stirring (1000 rpm). Washed platelets (3×10^8/ml) in modified Tyrode's buffer were stimulated with thrombin (Enzyme Research Laboratories). For talin knockdown platelet aggregation assay stimulated with manganese and ADP, manganese and ADP was mixed prior to experiment to achieve final concentration of 1 mM manganese and 5 μM ADP in reaction tube. Aggregation traces shown are representative of at least three independent experiments.
Platelet aggregation assays were performed with myristoylated peptide mP5, myristoylated peptide of SEQ: ID NO: 87, or their respective scarmbled control peptides, as essentially described herein. Briefly, washed human platelets were preincubated with 25, 50, 100, 250, or 500 μM peptide solubilized in DMSO.

[5] = C57BL/6 mice, FeCl3 carotid artery injury, compared to scrambled control ERAFEE
Method: In this study, adult mice are anesthetized by intraperitoneal injection of pentobarbital (120 mg/kg). The left common carotid artery is surgically exposed and a miniature Doppler flow probe (Model 0.5VB; Transonic Systems, Ithaca, N.Y.) is placed on the surface of the artery. After adding 0.9% sodium chloride solution in the surgical wound to allow Doppler monitoring, baseline blood flow is recorded using a Transonic flowmeter. Thereafter, sodium chloride solution is removed and filter paper (round, 1.0 mm in diameter) saturated with 10% FeCl3 is applied to the surface of the carotid artery immediately proximal to the flow probe. After 3 minutes, the filter paper is removed, saline solution is again administered to the wound, and carotid blood flow is monitored. If occlusive thrombosis occurs to the injured carotid artery, blood flow is reduced to zero. ExE motif peptide micelles and controls are injected i.v. via the tail vein in C57BL/6 mice, then tested for occlusive thrombosis using this model.

[6] = target: T1, Gα13 binding to β3 (Homo sapiens, UniProt P05106+Q14344); assay: Co-immunoprecipitation of β3 with Gα13 from platelet lysates; details: platelets stimulated with thrombin, 2 mM RGDS
T1 construct: Proteins from platelet lysates were immunoprecipitated with control IgG or antibody to Gα13; The integrin αIIbβ3 was co-immunoprecipitated by anti-Gα13 antibody, but not control IgG, from platelet lysates; endogenous in cells; host or cells: washed human platelets (lysates)
T1 sequence (Q14344 1-377): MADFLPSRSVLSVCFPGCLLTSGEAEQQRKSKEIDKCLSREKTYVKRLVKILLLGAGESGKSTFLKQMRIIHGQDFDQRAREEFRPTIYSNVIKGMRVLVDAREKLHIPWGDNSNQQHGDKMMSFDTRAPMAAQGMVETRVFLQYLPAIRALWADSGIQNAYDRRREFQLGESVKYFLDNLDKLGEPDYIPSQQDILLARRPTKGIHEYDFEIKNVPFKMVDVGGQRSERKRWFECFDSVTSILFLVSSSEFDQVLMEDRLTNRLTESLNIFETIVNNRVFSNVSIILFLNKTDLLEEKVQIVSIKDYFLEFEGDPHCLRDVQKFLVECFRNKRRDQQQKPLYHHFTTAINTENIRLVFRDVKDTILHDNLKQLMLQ
T1 sequence (P05106 27-788): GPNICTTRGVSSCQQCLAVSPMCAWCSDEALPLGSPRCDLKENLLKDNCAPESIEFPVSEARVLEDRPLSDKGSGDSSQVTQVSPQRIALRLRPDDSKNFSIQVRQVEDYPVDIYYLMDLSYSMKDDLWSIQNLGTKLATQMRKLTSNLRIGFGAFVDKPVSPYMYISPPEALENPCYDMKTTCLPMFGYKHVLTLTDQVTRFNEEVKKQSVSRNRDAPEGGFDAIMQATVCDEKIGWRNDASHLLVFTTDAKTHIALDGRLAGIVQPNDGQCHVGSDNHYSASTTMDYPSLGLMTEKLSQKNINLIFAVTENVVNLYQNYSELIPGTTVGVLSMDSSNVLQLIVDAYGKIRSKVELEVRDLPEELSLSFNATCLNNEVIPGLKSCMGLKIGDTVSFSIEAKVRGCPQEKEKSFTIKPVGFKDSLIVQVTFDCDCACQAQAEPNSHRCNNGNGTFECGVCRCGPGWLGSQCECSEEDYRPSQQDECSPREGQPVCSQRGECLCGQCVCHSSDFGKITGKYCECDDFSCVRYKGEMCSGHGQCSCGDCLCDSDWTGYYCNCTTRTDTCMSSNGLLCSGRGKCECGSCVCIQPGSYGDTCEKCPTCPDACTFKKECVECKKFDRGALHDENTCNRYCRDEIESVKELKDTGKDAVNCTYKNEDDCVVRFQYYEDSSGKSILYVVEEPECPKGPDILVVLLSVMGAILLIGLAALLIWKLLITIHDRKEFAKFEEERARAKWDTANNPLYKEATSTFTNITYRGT
Method: As previously described (S7), cell lysates were incubated with 2 μg/ml of D57 (antibody to integrin αIIbβ3), LJP3 (antibody against GPIb), or mouse IgG, and further incubated with protein G-conjugated Sepharose beads. Cell lysates were also incubated with rabbit anti-Gα13 IgG antibody (1.5 μg/ml) or an equal amount of rabbit IgG and further incubated with protein A-conjugated Sepharose beads. After 3-6 washes with lysis buffer, immunoprecipitates were analyzed by SDS-polyacrylamide gel electrophoresis and Western blots with antibodies against β3 (MAb15), GPIb (anti-IbαC (S8)) or Gα13. In some experiments, 1 μM GDP, 1 μM GTPγS or 30 μM AlF4^− were added to the reaction to assess the effect of Gα13 activation on integrin binding. In other experiments, 250 μM mSRI or scrambled control peptide was incubated with platelet lysates prior to immunoprecipitation. GST bead pull down analysis was previously described (S7). Purified Gα13 was incubated with glutathione beads-bound to GST, GST-β1CD or GST-β3 CD at 4° C. overnight. Bead-bound proteins were analyzed by immunoblotting. For GST-β3CD cDNA construction, integrin-β3 cytoplasmic domain (716-762) cDNA was generated by PCR and cloned into pGEX-4T2 vector using Bam HI and Xho I restriction sites. The forward primer is 5′-[…]-3′ (SEQ ID NO: 48); the reverse primer is 5′-[…]-3′ (SEQ ID NO: 49). For GST-I31CD cDNA construction, β1 cytoplasmic domain (752-798) cDNA was amplified by PCR and cloned into pGEX-4T1 vector using EcoRI and Xho I restriction sites. The primer sequences are: (1) forward: 5′-[…]-3′ (SEQ ID NO: 50); (2) reverse: […]-3′ (SEQ ID NO: 51). GST, GST-β1CD and GST-β3CD were purified from BL21 (DE3) E. coli using glutathione-conjugated beads.
Cell lysates were incubated with rabbit anti-Gα13 IgG (1.5 μg/ml), anti-integrin β3 rabbit serum (5 μl/ml) or an equal amount of rabbit IgG or pre-immune serum at 4° C. overnight, and subsequently with protein A-conjugated Sepharose beads for 1 hour. For the integrin β3 clustering experiment, human platelets (3×10^8) were stimulated with 0.025 U/ml α-thrombin for 2 minutes at room temperature (to avoid platelet aggregation) with or without 2 mM RGDS, then incubated with 5 μl anti-integrin β3 8053 rabbit serum at room temperature for 1 hour, and 5 μg goat anti-rabbit secondary antibody for another 1 hour. Platelets were then solubilized in modified RIPA Buffer. For the un-clustering control and pre-immune serum control, cells were solubilized in modified RIPA Buffer first, than incubated with 5 μl 8053 serum or pre-immune serum. After 3-6 washes with lysis buffer, immunoprecipitates were analyzed by SDS-polyacrylamide gel electrophoresis and Western blots using antibodies against β3, talin, or Gα13. In some experiments, 500 μM control or inhibitor peptides, mP5, mP7 and mP13 were incubated with platelet lysates prior to immunoprecipitation, or 2 mM RGDS was added into washed human platelets before stimulation by 0.025 U/ml α-thrombin. GST bead pull down analysis was previously described^8. Purified Gα13 or MBP-talin head were incubated with glutathione beads-bound to GST or GST-β3CD at 4° C. overnight. Bead-bound proteins were analyzed by immunoblotting.

[7] = tested on: RhoA; assay: RhoA activity assay (GST-RBD pull down) in platelets; assay type: cell-based, human; details: platelets stimulated with thrombin, 2 mM RGDS
Method: as §1

[8] = tested on: human platelets; assay type: cell-based
Method: The clots were photographed at various time points. […] Statistical significance was determined using t-test.
Studies using human platelets were approved by institutional review board of University of Illinois at Chicago.
Coverslides were pre-coated with 100 μg/ml fibrinogen and blocked with 5% BSA in PBS. 300 μl αIIbβ3-expressing CHO cells (expressing WT or mutant integrins; 1×10^5/ml) or platelets (1×10^7/ml) suspended in Tyrode's buffer were added to coverslides and incubated at 37° C. for various lengths of time. Cells were fixed with 4% paraformaldehyde (PFA) for 10 minutes and permeabilized with 0.1% Triton X-100 in PBS for 2 minutes. After blocking with 5% BSA for 10 minutes, coverslides were incubated with 0.2 μg/ml mAb 15, or Alexa Fluor-546 conjugated phalloidin. For mouse platelets re-express wild type β3 or the AAA mutant of β3, β3 was immuno-stained with the anti-β3 monoclonal antibody MAb 15 and Alexa Fluor-546 conjugated phalloidin. The slides were scanned with a Zeiss LSM5 10 META confocal microscope as previously described^11

## 5′-GGAGATCGACAAATGCCTG [Gα13 siRNA #2]
[1]
  platelet spreading: inhibited
[2]
  activation of RhoA: accelerated
[3]
  c-Src activation: inhibited

## FEEERA
[4]; 25-500 μM peptide in DMSO, 0.09 U/ml thrombin, washed human platelets
  inhibition of platelet aggregation, doses compared to the mP5 peptide: inhibit platelet aggregation at lower doses
[4]; preliminary dose-dependent study, DMSO solution vs micellar formulation
  concentration required for the maximal effect on in vitro platelet aggregation: 250 µM
[5]
  time to occlusion: increased

## RGDS [reference compound]
[6]
  Thrombin-stimulated binding of Gα13 to αIIbβ3: inhibited
[7]
  RhoA inhibition simultaneous with thrombin-stimulated Gα13-αIIbβ3 binding: inhibited

## 5′-GTCCACCTTCCTGAAGCAG [Gα13 siRNA #1]
[1]
  platelet spreading: inhibited
[2]
  activation of RhoA: accelerated
[3]
  c-Src activation: inhibited

## C[C@@H](N)[C@H]1CC[C@H](C(=O)Nc2ccncc2)CC1 [Y27632, reference compound]
[1]; Gα13-depleted mouse platelets
  inhibitory effect of Gα13 depletion on platelet spreading (reversal): reversed
[8]; platelets treated with mP5
  inhibitory effect of mP5 on platelet spreading (reversal): reversed
[8]; platelets treated with mSRI
  inhibitory effect of mSRI on platelet spreading (reversal): reversed

## CC(=O)Oc1ccccc1C(=O)O [aspirin, reference compound]
[1]; mouse platelets pre-incubated with 1 mM aspirin
  platelet spreading on fibrinogen: did not affect
